Measurements published in PubChem BioAssay (NCI).
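A five-concentration, 48-hour dose response in 96-well plates underlies each endpoint, interpolated linearly between surrounding concentrations. GI50 is the concentration that inhibits growth by half. TGI: concentration producing complete growth inhibition.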

Tests used:
Assay in all cases: NCI tumour cell line growth inhibition, 48 h
HCT-15 colon = tested on: HCT-15 colon
EKVX NSCLC = tested on: EKVX NSCLC
DU-145 prostate = tested on: DU-145 prostate
OVCAR-3 ovarian = tested on: OVCAR-3 ovarian
NCI-H522 lung = tested on: NCI-H522 lung
CAKI-1 renal = tested on: CAKI-1 renal
HT29 colon = tested on: HT29 colon
SK-OV-3 ovarian = tested on: SK-OV-3 ovarian
COLO 205 colon = tested on: COLO 205 colon
MDA-MB-231 breast = tested on: MDA-MB-231 breast
HCC-2998 colon = tested on: HCC-2998 colon
SR leukemia = tested on: SR leukemia
OVCAR-8 ovarian = tested on: OVCAR-8 ovarian
UACC-257 melanoma = tested on: UACC-257 melanoma
SF-295 CNS = tested on: SF-295 CNS
SNB-75 CNS = tested on: SNB-75 CNS
UO-31 renal = tested on: UO-31 renal
TK-10 renal = tested on: TK-10 renal
U251 CNS = tested on: U251 CNS
K-562 leukemia = tested on: K-562 leukemia
SK-MEL-2 melanoma = tested on: SK-MEL-2 melanoma
OVCAR-4 ovarian = tested on: OVCAR-4 ovarian
MCF7 breast = tested on: MCF7 breast
ACHN renal = tested on: ACHN renal
BT-549 breast = tested on: BT-549 breast
SF-268 CNS = tested on: SF-268 CNS
SK-MEL-28 melanoma = tested on: SK-MEL-28 melanoma
CCRF-CEM leukemia = tested on: CCRF-CEM leukemia
RXF 393 renal = tested on: RXF 393 renal
SN12C renal = tested on: SN12C renal
NCI-H226 lung = tested on: NCI-H226 lung
M14 melanoma = tested on: M14 melanoma
OVCAR-5 ovarian = tested on: OVCAR-5 ovarian
MALME-3M melanoma = tested on: MALME-3M melanoma
NCI-H23 lung = tested on: NCI-H23 lung
PC-3 prostate = tested on: PC-3 prostate
MOLT-4 leukemia = tested on: MOLT-4 leukemia
UACC-62 melanoma = tested on: UACC-62 melanoma
HL-60(TB) leukemia = tested on: HL-60(TB) leukemia
NCI-H460 lung = tested on: NCI-H460 lung
SK-MEL-5 melanoma = tested on: SK-MEL-5 melanoma
HS 578T breast = tested on: HS 578T breast
SF-539 CNS = tested on: SF-539 CNS
NCI/ADR-RES ovarian = tested on: NCI/ADR-RES ovarian
T-47D breast = tested on: T-47D breast
HOP-92 NSCLC = tested on: HOP-92 NSCLC
LOX IMVI melanoma = tested on: LOX IMVI melanoma
MDA-MB-435 = tested on: MDA-MB-435
HCT-116 colon = tested on: HCT-116 colon
IGROV1 ovarian = tested on: IGROV1 ovarian
A498 renal = tested on: A498 renal
HOP-62 NSCLC = tested on: HOP-62 NSCLC
RPMI-8226 leukemia = tested on: RPMI-8226 leukemia
SNB-19 CNS = tested on: SNB-19 CNS
KM12 colon = tested on: KM12 colon
SW-620 colon = tested on: SW-620 colon

O=C1c2cccnc2C(=O)c2c1c(C(=O)OCCN1CCCCC1)c1ccccn21
GI50 (HCT-15 colon): 41.6 nM | TGI (HCT-15 colon): 984 nM | GI50 (EKVX NSCLC): 851 nM | TGI (EKVX NSCLC): 7520 nM | GI50 (DU-145 prostate): 18.9 nM | TGI (DU-145 prostate): 714 nM | GI50 (OVCAR-3 ovarian): 172 nM | TGI (OVCAR-3 ovarian): 2810 nM | GI50 (NCI-H522 lung): 18 nM | TGI (NCI-H522 lung): 99.2 nM | GI50 (CAKI-1 renal): 26.9 nM | TGI (CAKI-1 renal): 1530 nM | GI50 (HT29 colon): 120 nM | TGI (HT29 colon): 1710 nM | GI50 (SK-OV-3 ovarian): 12.4 nM | TGI (SK-OV-3 ovarian): 51 nM | GI50 (COLO 205 colon): 48.1 nM | TGI (COLO 205 colon): 169 nM | GI50 (MDA-MB-231 breast): 731 nM | TGI (MDA-MB-231 breast): 12600 nM | GI50 (HCC-2998 colon): 78.8 nM | TGI (HCC-2998 colon): 1570 nM | GI50 (SR leukemia): 6.98 nM | TGI (SR leukemia): 82.8 nM | GI50 (OVCAR-8 ovarian): 34.4 nM | TGI (OVCAR-8 ovarian): 1020 nM | GI50 (UACC-257 melanoma): 87.8 nM | TGI (UACC-257 melanoma): 395 nM | GI50 (SF-295 CNS): 31.1 nM | TGI (SF-295 CNS): 200 nM | GI50 (SNB-75 CNS): 18.9 nM | TGI (SNB-75 CNS): 188 nM | GI50 (UO-31 renal): 38.9 nM | TGI (UO-31 renal): 1670 nM | GI50 (TK-10 renal): 97.8 nM | TGI (TK-10 renal): 430 nM | GI50 (U251 CNS): 18.3 nM | TGI (U251 CNS): 179 nM | GI50 (K-562 leukemia): 48.4 nM | TGI (K-562 leukemia): 1670 nM | GI50 (SK-MEL-2 melanoma): 90.9 nM | TGI (SK-MEL-2 melanoma): 224 nM | GI50 (OVCAR-4 ovarian): 655 nM | TGI (OVCAR-4 ovarian): 2300 nM | GI50 (MCF7 breast): 5.75 nM | TGI (MCF7 breast): 76.7 nM | GI50 (ACHN renal): 12.9 nM | TGI (ACHN renal): 53.4 nM | GI50 (BT-549 breast): 152 nM | TGI (BT-549 breast): 2160 nM | GI50 (SF-268 CNS): 34.5 nM | TGI (SF-268 CNS): 365 nM | GI50 (SK-MEL-28 melanoma): 210 nM | TGI (SK-MEL-28 melanoma): 2190 nM | GI50 (CCRF-CEM leukemia): 294 nM | TGI (CCRF-CEM leukemia): 5000 nM | GI50 (RXF 393 renal): 61.5 nM | TGI (RXF 393 renal): 235 nM | GI50 (SN12C renal): 13.8 nM | TGI (SN12C renal): 479 nM | GI50 (NCI-H226 lung): 13.5 nM | TGI (NCI-H226 lung): 86.7 nM | GI50 (M14 melanoma): 14.7 nM | TGI (M14 melanoma): 65.6 nM | GI50 (OVCAR-5 ovarian): 198 nM | TGI (OVCAR-5 ovarian): 2020 nM | GI50 (MALME-3M melanoma): 84.7 nM | TGI (MALME-3M melanoma): 424 nM | GI50 (NCI-H23 lung): 5.7 nM | TGI (NCI-H23 lung): 29.1 nM | GI50 (PC-3 prostate): 160 nM | TGI (PC-3 prostate): 9590 nM | GI50 (MOLT-4 leukemia): 162 nM | TGI (MOLT-4 leukemia): 2210 nM | GI50 (UACC-62 melanoma): 12.1 nM | TGI (UACC-62 melanoma): 69 nM | GI50 (HL-60(TB) leukemia): 363 nM | TGI (HL-60(TB) leukemia): 3240 nM | GI50 (NCI-H460 lung): 5 nM | TGI (NCI-H460 lung): 12.8 nM | GI50 (SK-MEL-5 melanoma): 25.1 nM | TGI (SK-MEL-5 melanoma): 113 nM | GI50 (HS 578T breast): 72.3 nM | TGI (HS 578T breast): 376 nM | GI50 (SF-539 CNS): 17.4 nM | TGI (SF-539 CNS): 155 nM | GI50 (NCI/ADR-RES ovarian): 33.1 nM | TGI (NCI/ADR-RES ovarian): 1070 nM | GI50 (T-47D breast): 515 nM | TGI (T-47D breast): 7400 nM | GI50 (HOP-92 NSCLC): 42.6 nM | TGI (HOP-92 NSCLC): 285 nM | GI50 (LOX IMVI melanoma): 17.2 nM | TGI (LOX IMVI melanoma): 95 nM | GI50 (MDA-MB-435): 80.4 nM | TGI (MDA-MB-435): 829 nM | GI50 (HCT-116 colon): 41 nM | TGI (HCT-116 colon): 1950 nM | GI50 (IGROV1 ovarian): 145 nM | TGI (IGROV1 ovarian): 2940 nM | GI50 (A498 renal): 65 nM | TGI (A498 renal): 13100 nM | GI50 (HOP-62 NSCLC): 5.54 nM | TGI (HOP-62 NSCLC): 31.3 nM | GI50 (RPMI-8226 leukemia): 119 nM | TGI (RPMI-8226 leukemia): 950 nM | GI50 (SNB-19 CNS): 13 nM | TGI (SNB-19 CNS): 498 nM | GI50 (KM12 colon): 160 nM | TGI (KM12 colon): 9020 nM | GI50 (SW-620 colon): 18.7 nM | TGI (SW-620 colon): 362 nM
